Data taken from patent US20240165282A1, “CONFORMATIONAL CONSTRAINED SOMATOSTATIN RECEPTOR 3 PEPTIDE LIGANDS AND THEIR CONJUGATES AND USES THEREOF” (STARGET PHARMA LTD., priority 2021, published 2024).
pIC50, pKi: −log10 of the molar value. *1 amine or outer side, *2 acyl side, *3 side chain or, on linkers, in order; H or OH if unused. Where a SMILES comes first, the peptide text is derived from it. Bridges are numbered along the chain shown (N, C = ends). Where no end group is shown, it is not given here. [ ]: non-standard residue; d: D form. N(2-mercaptoethyl)Gly = O=C(CN(CCS[*:3])[*:1])[*:2]

How the values were obtained:
[1] = target: SSTR5 (Homo sapiens, UniProt P35346); assay: Radioligand binding, displacement of 125I-Tyr11-SRIF-14; design: host or cells: Chem-1 (Rat ChemiSCREEN) cells, membrane preparation; details: hSSTR-5; for pIC50: read-out: IC50
Method in brief: (§1)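 Assays ran at 25 °C in 25 mM HEPES pH 7.4 with 5 mM MgCl2, 1 mM CaCl2, 0.1% BSA and 1% DMSO. Filter-bound radioactivity gave IC50 by nonlinear least-squares regression.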

[2] = tested on: insulin release; assay: Glucose induced insulin release in rats; format: in vivo, Wistar rats; details: S.C. 100-1000 microgram/kg, glucose stimulation
Method: (§2) In vivo determination of the pharmacodynamic properties of SSTR3 analogs was carried out in rats, according to known procedures (Afargan M. et al., 2001, Pless J. et al 1986).
(§3) Adult male Wistar rats weighing 200-220 g, were maintained on a constant light-dark cycle (light from 8:00 to 20:00 h), temperature (21±3° C.), and relative humidity (55±10%). Laboratory chow and tap water were available ad libitum. All animals in the study were fasted overnight, animals were placed in cages with metal mesh to prevent coprophagia with free access to water. On the day of the experiment, rats were anesthetized with Nembutal (IP, 60 mg/kg). Ten minutes after anesthesia, drugs were administrated S.C. at 100-1000 microgram/kg dose. At 10 minutes after drugs administration the stimulation of GH and glucagon release were carried out by i.v. bolus administration of 0.5 g/kg L-arginine, stimulation of insulin release was carried out in separate animal groups that received i.v. bolus of 0.5 g/kg of glucose. Terminal blood samples in EDTA were collected at 5 minutes after stimulation. Blood samples were and centrifuged immediately. Plasma was separated and kept frozen at −20° C. until assayed.
(§4) Rat growth hormone (rGH), glucagon and insulin levels were determined by commercial ELISA kits using the Millipore ELISA kits (Billerica, MA, USA). The ELISA kit for rat plasma GH, Millipore, Cat. No. EZRMGH-45K was performed according to the validated detection method of colorimetric sandwich ELISA protocol (Supriya S. et al., 2013). The ELISA kit for rat plasma insulin, Millipore Cat. No. MMEZRMI13K (Merck) was performed according to the validated detection method of fluorescent colorimetric protocol (Xu, P.Z. et al., 2012). The ELISA kit for rat plasma glucagon, Millipore, Cat. No. EZGLU-35 was performed according to the validated detection method of chemiluminescent sandwich ELISA protocol (Soyeon Y. et al., 2021).
(§5) Data analysis of rat plasma GH, glucagon and insulin levels was evaluated by the averaged plasma hormones levels of each group. […] Results are expressed as the mean±SEM.

[3] = tested on: GH release; assay: L-arginine induced GH release in rats; format: in vivo, Wistar rats; details: S.C. 100-1000 microgram/kg, L-arginine stimulation
Method: as §2
Inhibition of GH release as a result of peptide administration was measured in Wistar male rats.
as §3
as §4, with “The ELISA kit for rat plasma glucagon, Millipore, Cat. No. EZGLU-35 was performed according to the validated detection method of chemiluminescent sandwich ELISA protocol (Soyeon Y. et al., 2021).” left out
as §5

[4] = target: T1, hSSTR-4 (Homo sapiens, UniProt P31391); assay: Radioligand binding, displacement of 125I-Tyr11-SRIF-14; details: hSSTR-4; for pIC50: read-out: IC50
T1 construct: host or cells: Chem-1 (Rat ChemiSCREEN) cells, membrane preparation
Method in brief: as §1

[5] = target: T2, SSTR2 (Homo sapiens, UniProt P30874); assay: as above; design: host or cells: CHO (Chinese Hamster Ovary) cells, membrane preparation; details: hSSTR-2; for pIC50: read-out: IC50
Method in brief: as §1

[6] = target: SSTR1 (Homo sapiens, UniProt P30872); assay: as above; design: host or cells: CHO (Chinese Hamster Ovary) cells, membrane preparation; details: hSSTR-1; for pIC50: read-out: IC50
Method in brief: as §1

[7] = target: T3, SSTR3 (Homo sapiens, UniProt P32745); assay: as above; design: host or cells: CHO (Chinese Hamster Ovary) cells, membrane preparation; details: for affinity and selectivity to SSTR3 (in words): binding data; for Hill coefficient (nH) / pKi / pIC50: hSSTR-3; for pKi: Cheng and Prusoff, read-out: Ki; for pIC50: read-out: IC50
Method in brief: as §1

[8] = target: T3, SSTR3; assay: β-Arrestin mediated receptor internalization (PathHunter), transfected CHO cells; format: cell-based; design: host or cells: CHO cells
Method: (§6) The assays were performed utilizing the PathHunter beta-arrestin enzyme fragment complementation (EFC) technology by Eurofins (CA, USA).
(§7) Cell Handling: 1. PathHunter cell lines were expanded from freezer stocks according to standard procedures. 2. Cells were seeded in a total volume of 20 μL into white walled, 384-well microplates and incubated at 37° C. for the appropriate time prior to testing. Agonist Format: 1. For agonist determination, cells were incubated with sample to induce response. 2. Intermediate dilution of sample stocks was performed to generate 5× sample in assay buffer. 3. 5 μL of 5× sample was added to cells and incubated at 37° C. or room temperature for 90 or 180 minutes. Final assay vehicle concentration was 1%. […] Microplates were read following signal generation with a PerkinElmer Envision™ instrument for chemiluminescent signal detection. Data Analysi: Compound activity was analyzed using CBIS data analysis suite (ChemInnovation, CA). […] For agonist mode assays, percentage activity was calculated using the following formula: % Activity=100%×(mean RLU of test sample−mean RLU of vehicle control)/(mean MAX control ligand−mean RLU of vehicle control). […] For antagonist mode assays, percentage inhibition was calculated using the following formula: % Inhibition =100%×(1−(mean RLU of test sample−mean RLU of vehicle control)/(mean RLU of EC80 control−mean RLU of vehicle control)). […]

[9] = Physicochemical studies of surface activity; details: nonspecific binding
[10] = target: T2, SSTR2; assay: β-Arrestin mediated receptor internalization (PathHunter), transfected CHO cells; format: cell-based; details: SSTR2 transfected cells
Method: as §6, §7

[11] = design: species or system mice; details: mouse, in vivo, iv
Method: As described in Example 1 above, the successful substitution of the arginine with lysine which preserved the high affinity selectivity of SEQ ID NO: 2 to SSTR-3 (as depicted in table 3) can improve this analog as a better candidate for radioligand therapy and diagnostic. SEQ ID NO: 4 and SEQ ID NO: 10 are the gallium labeled analogs of SEQ ID NO: 1 and SEQ ID NO: 2 respectively. Following their radiolabeling the radioligand were injected to anesthetized naïve mice by intravenous administration. The mice were subjected to PET-CT imaging aimed to assess the disposition profiles of the radioligands.

[12] = Cheng and Prusoff, read-out: Ki

Chain of SSTR5 (P35346 whole entry): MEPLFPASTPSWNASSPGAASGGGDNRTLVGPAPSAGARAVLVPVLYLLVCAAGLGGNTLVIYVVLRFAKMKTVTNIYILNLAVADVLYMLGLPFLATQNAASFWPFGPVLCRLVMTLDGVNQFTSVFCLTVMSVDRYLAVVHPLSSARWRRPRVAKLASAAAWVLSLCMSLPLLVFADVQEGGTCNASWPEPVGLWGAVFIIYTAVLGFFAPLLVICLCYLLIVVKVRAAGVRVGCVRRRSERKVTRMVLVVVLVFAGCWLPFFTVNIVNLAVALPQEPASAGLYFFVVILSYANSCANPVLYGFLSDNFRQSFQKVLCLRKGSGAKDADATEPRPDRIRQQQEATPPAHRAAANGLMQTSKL
T1 sequence (P31391 whole entry): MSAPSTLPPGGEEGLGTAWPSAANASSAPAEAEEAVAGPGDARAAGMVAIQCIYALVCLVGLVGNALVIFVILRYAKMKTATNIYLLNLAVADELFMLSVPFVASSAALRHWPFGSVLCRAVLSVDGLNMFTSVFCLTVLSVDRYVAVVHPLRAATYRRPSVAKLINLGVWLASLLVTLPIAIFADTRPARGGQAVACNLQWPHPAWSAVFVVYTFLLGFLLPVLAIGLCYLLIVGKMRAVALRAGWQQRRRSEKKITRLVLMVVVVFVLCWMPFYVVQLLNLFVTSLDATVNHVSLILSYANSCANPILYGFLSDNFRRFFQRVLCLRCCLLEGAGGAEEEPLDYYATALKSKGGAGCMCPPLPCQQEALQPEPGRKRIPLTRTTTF
Chain of SSTR1 (P30872 whole entry): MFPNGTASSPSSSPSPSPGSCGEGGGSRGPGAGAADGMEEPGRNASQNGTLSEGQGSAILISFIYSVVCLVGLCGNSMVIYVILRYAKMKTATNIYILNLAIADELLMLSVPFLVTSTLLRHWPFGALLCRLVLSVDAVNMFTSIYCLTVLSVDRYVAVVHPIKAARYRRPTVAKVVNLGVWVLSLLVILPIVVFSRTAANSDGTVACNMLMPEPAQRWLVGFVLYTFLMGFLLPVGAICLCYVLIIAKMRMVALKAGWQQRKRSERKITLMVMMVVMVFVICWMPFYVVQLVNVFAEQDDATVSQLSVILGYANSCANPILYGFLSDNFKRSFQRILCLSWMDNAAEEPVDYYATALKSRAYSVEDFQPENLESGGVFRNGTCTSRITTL
T3 sequence (P32745 whole entry): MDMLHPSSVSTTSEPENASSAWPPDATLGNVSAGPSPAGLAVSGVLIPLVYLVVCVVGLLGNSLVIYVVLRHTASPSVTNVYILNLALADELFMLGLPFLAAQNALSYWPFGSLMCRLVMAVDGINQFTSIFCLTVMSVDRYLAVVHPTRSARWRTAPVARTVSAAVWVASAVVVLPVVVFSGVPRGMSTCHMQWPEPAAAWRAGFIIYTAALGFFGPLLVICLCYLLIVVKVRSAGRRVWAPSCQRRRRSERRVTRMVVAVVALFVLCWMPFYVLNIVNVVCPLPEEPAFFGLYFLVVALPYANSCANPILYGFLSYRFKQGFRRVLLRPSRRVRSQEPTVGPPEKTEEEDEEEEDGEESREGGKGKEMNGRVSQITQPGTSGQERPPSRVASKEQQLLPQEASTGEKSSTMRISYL
T2 sequence (P30874 whole entry): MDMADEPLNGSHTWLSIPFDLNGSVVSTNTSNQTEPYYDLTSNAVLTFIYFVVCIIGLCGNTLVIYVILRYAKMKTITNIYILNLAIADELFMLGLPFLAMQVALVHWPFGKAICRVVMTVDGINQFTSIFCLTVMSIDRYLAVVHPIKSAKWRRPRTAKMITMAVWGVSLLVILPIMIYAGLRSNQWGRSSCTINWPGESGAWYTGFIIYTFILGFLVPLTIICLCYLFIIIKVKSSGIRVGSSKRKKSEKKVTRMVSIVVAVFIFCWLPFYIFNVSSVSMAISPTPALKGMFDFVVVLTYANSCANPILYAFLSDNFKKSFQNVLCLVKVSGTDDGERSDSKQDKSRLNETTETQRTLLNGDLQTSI

In the case of C[C@@H](O)[C@@H]1NC(=O)[C@H](CCCCN)NC(=O)[C@@H](Cc2c[nH]c3ccccc23)NC(=O)[C@H](Cc2ccccc2)NC(=O)[C@@H](NC(=O)[C@H](CCCNC(=N)N)NC(=O)[C@H](N)Cc2ccccc2)CSSCCN(CC(N)=O)C(=O)[C@H](Cc2ccccc2)NC1=O [SEQ ID NO: 1, H-D-Phe^1-Arg^2-Cys^3-Phe^4-D-Trp^5-Lys^6-Thr^7-Phe^8-NTEG^9-NH^2 (cyclo 3-9)] (H-[dF]RCF[dW]KTF[N(2-mercaptoethyl)Gly]-NH2; disulfide 3-9), the “Hill coefficient (nH)” value [1] was 1.2, the pKi [1, 12] was 6.77 and the pIC50 [1] was 6.51. The “effect on insulin release” value [2] was “did not affect insulin release”, the “inhibition of GH release” value ([3]; listed as SEQ ID NO.1) was “potent inhibitors of pituitary GH release” and the “inhibition of GH release” value ([3]; listed as SEQ ID NO:1) was “potent anti-secretagogue of growth hormone secretion”. The “Hill coefficient (nH)” value [4] was 1.24, the pKi [4, 12] was less than 6.00 and the pIC50 [4] was less than 6.00. The “Hill coefficient (nH)” value [5] was 1.25, the pKi [5, 12] was 6.49 and the pIC50 [5] was 6.41. The “Hill coefficient (nH)” value [6] was 0.74, the pKi [6, 12] was 6.82 and the pIC50 [6] was 6.74. The “affinity and selectivity to SSTR3 (in words)” value [7] was “high affinity and selectivity to human cloned SSTR3 in the nanomolar range”, the “Hill coefficient (nH)” value [7] was 1.28 and the pKi [7] was 9.82. The pIC50 [7] was 9.37 and the “agonistic activity profile at SSTR3 (in words)” value [8] was “superagonistic activity profile of SSTR3 above the native hormone SRIF-14”.

With C[C@@H](O)[C@@H]1NC(=O)[C@H](CCCCN)NC(=O)[C@@H](Cc2c[nH]c3ccccc23)NC(=O)[C@H](Cc2ccccc2)NC(=O)[C@@H](NC(=O)[C@H](CCCCN)NC(=O)[C@H](N)Cc2ccccc2)CSSCCN(CC(N)=O)C(=O)[C@H](Cc2ccccc2)NC1=O [SEQ ID NO: 2, H-D-Phe^1-Lys^2-Cys^3-Phe^4-D-Trp^5-Lys^6-Thr^7-Phe^8-NTEG^9-NH2 (cyclo 3-9)] (H-[dF]KCF[dW]KTF[N(2-mercaptoethyl)Gly]-NH2; disulfide 3-9) the pIC50 [1] was less than 6.30, the “effect on insulin release” value [2] was “did not affect insulin release” and the “inhibition of GH release” value [3] was “potent inhibitors of pituitary GH release”. For the same molecule, the pIC50 [4] was less than 6.00, the surface activity profile [9] was “favorable surface activity profile by means of reduced nonspecific binding” and the pIC50 [5] was less than 6.30. For the same molecule, the pIC50 [6] was less than 7.00, the “affinity and selectivity to SSTR3 (in words)” value [7] was “retained the binding affinity and selectivity to SSTR3” and the “Hill coefficient (nH)” value [7] was 1.09. It also gave a pKi [7] of 9.60 and a pIC50 [7] of 9.14.

In the case of SRIF-28, the “Efficacy - maximal response” value [10] was 47480 RLU and the Note [10] was “Agonist”.

In the case of “radiolabeled SEQ ID NO: 2 ([dF]KCF[dW]KTF[N(2-mercaptoethyl)Gly]-NH2; disulfide 3-9; not fully specified (N-terminus); also: radiolabeled)”, the “clearance from the kidneys” value [11] was “significantly higher clearance of the peptide from the kidneys in comparison to radiolabeled SEQ ID NO: 1”.
